Experimental data from patent US20220002396A1, “METHODS OF TREATING CANCER WITH FARNESYLTRANSFERASE INHIBITORS” (Kura Oncology, Inc., priority 2018, published 2022).

Experiments:
Type in all cases: in vivo, human
[1] = tested on: advanced pancreatic adenocarcinoma; test: Randomized, double-blind, placebo-controlled study of gemcitabine+tipifarnib versus gemcitabine+placebo (Study INT-17 / INT-11)
Experimental: In a randomized, double-blind, placebo-controlled study of gemcitabine+tipifarnib versus gemcitabine+placebo in patients with advanced pancreatic adenocarcinoma previously untreated with systemic therapy, tipifarnib (R115777) was administered at a dosage amount of 200 mg twice a day, orally, and continuously (Study INT-17). Gemcitabine was administered intravenously at a dosage amount of 1,000 mg/m(2) weekly x 7 for 8 weeks, then weekly x 3 every 4 weeks. 686 patients were enrolled. The median overall survival for the experimental arm was 193 v 182 days for the control arm (P=0.75).

previously untreated AML = test: Tipifarnib monotherapy in elderly patients with previously untreated AML (CTEP-20), outcome by IGF1/CXCL12 expression
Experimental: (§1) Gene expression profile (GEP) data generated using RNA-Seq and the Affymetrix U133A gene-chip of tumor samples from 71 patients enrolled in tipifarnib trials (CTEP-20, KO-TIP-002, KO-TIP-004) were analyzed with respect to study outcomes and complemented with analyses of mRNA expression in data sets from the cBioportal for Cancer Genomics. Clinical trial information: NCT00027872, NCT02464228, NCT02807272.
Data from a study investigating tipifarnib monotherapy in elderly patients with previously untreated AML (CTEP-20) was examined in detail to determine the effect of the expression of CXCL12 and IGF1 on the response of the patients to tipifarnib.
The effect of IGF1/CXCL12 co-expression on patient outcome in tipifarnib was examined. In previously untreated AML, 3 subsets of patients were identified with respect to IGF1/CXCL12 expression (FIG. 2A). These subsets were 1) high IGF1, high CXCL12 (left boxplots), 2) intermediate IGF1, low CXCL12 (middle boxplots), and 3) low IGF1, variable CXCL12, (right boxplots).
When CXCL12 was at low levels and IGF1 was at intermediate levels, low CXCL12 levels translates to disease progression with 1 CR and 8 with progressive disease (PD) as outcome (FIG. 2C). When the IGF1 levels were low, CXCL12 had variable levels and six patients out of 15 experienced CR. […] Receiver-Operator-Characterisitics (ROC) curves for prediction of a CR in these patients confirmed that higher CXCL12 and lower IGF1 levels were predictive of complete responses in the AML patient population (FIG. 2E).

CMML = test: Tipifarnib-treated CMML subjects with pre-treatment BM gene expression data; details: in 17 tipifarnib-treated CMML subjects
Experimental: as §1
Four objective responses and 1 tumor lysis syndrome were reported in 17 tipifarnib-treated CMML subjects with available pre-treatment BM gene expression data. CXCL12 expression (p=0.07) and the CXCL12/CXCR4 ratio (p=0.03) were predictive of those events while IGF1 expression levels were barely detectable in these patients.

nodal PTCL = test: Tipifarnib monotherapy in nodal PTCL patients with pre-treatment GEP data; details: 13 nodal PTCL patients
Experimental: as §1
The effect of CXCL12 and IGF1 was also investigated in 13 nodal PTCL patients with pre-treatment GEP data who received tipifarnib monotherapy. […] Adjusting the IGFBP7 expression to the level of IGF1R expression also identified those patients as responders to therapy.

breast cancer = test: Phase II study of tipifarnib in breast cancer patients (Study GBR-1)
Experimental: Biomarkers in breast cancer were also examined for their relationship to CXCL12/IGF1 expression and to the activity of tipifarnib when administered to patients. A phase II study was performed with 76 patients treated with tipifarnib (Study GBR-1). Patients were tested for estrogen-receptor positivity (ER+) or negativity (ER−), progesterone receptor positivity (PGR+) or negativity (PGR−), and the presence or absence of TP53 mutation. Overall response rate in the study was 12%. Biomarker data was available for 41 patients.

[2] = subset intermediate IGF1, low CXCL12

Neutropenia grade > or =3 ([1]; all patients, per arm)	thrombocytopenia grade > or =3 ([1]; all patients, per arm)	tumor lysis syndrome (CMML)	Molecule	median overall survival ([1]; 686 patients enrolled, tipifarnib 200 mg twice a day orally, gemcitabine 1,000 mg/m(2) IV, P=0.75)	survival of patients not reporting versus reporting abdominal pain at study entry, within arm ([1]; FIG. 5B)	complete response (CR) (previously untreated AML; subset high IGF1, high CXCL12, out of 10 subjects)	complete response (CR) (previously untreated AML; [2])	progressive disease (PD) as outcome (previously untreated AML; [2])	partial responses (PR) (nodal PTCL)	Overall response rate (breast cancer; 76 patients treated)	objective response rate (breast cancer; four patients with PGR(+) and ER(−) tumors)	RESPONSE (breast cancer; one line per patient, PGR(+) ER(−) population)	objective response rate (breast cancer; seven patients with PGR(+) and wild type TP53 tumors)
30%	12%		gemcitabine [gemcitabine+placebo]	182 days	not significantly different								
		1	Cn1cncc1[C@@](N)(c1ccc(Cl)cc1)c1ccc2c(c1)c(-c1cccc(Cl)c1)cc(=O)n2C [tipifarnib]			2 patients	1	8	2	12%	75%	NO RESPONSE	57%
